From US9409952B2, “Peptide-compound cyclization method” (Chugai Seiyaku Kabushiki Kaisha, priority 2011, dated 2016)
Positions of bridges follow the written chain, without caps; N, C: chain ends. Non-standard residues stand in square brackets, D forms with d. Residues, ends and D or L forms follow the SMILES beside them. *: point of attachment. Bip = N[C@@H](Cc1ccc(-c2ccccc2)cc1)C(=O)O; NMeF = CN[C@@H](Cc1ccccc1)C(=O)O; NMeI = CC[C@H](C)[C@H](NC)C(=O)O; NMeL = CN[C@@H](CC(C)C)C(=O)O; NMeA = CN[C@@H](C)C(=O)O; Piperidide = C1CCN(*)CC1; Sar = CNCC(=O)O; tBu = CC(C)(C)*

Tests used:
[1] = Serum stability test in mouse serum; type: in vitro ADME; details: both sexes, pH 7.4, two hours, read-out: Serum stability t1/2 (Mouse)
Procedure: (§1) The obtained compound was metabolically reacted at a concentration of 2 uM with mouse serum (male/female mixed, Valley Biomedical, USA) (adjusted to pH 7.4 with 33.5 mM HEPES buffer) for two hours. Deproteinization treatment with acetonitrile was provided over time, the amount of the remaining unchanged compound was analyzed using LC/MS, and the metabolic half-life (t1/2) was calculated. A microsome solution prepared at 0.5 mg protein/mL from mouse hepatic microsome and small intestinal microsome (male, XENOTECH, USA) using 100 mM phosphate buffer (pH 7.4) was metabolically reacted with the compound at a concentration of 1 uM for 30 minutes in the presence or absence of NADPH. Deproteinization treatment with acetonitrile was provided over time, the amount of the remaining unchanged compound was analyzed using LC/MS, and the hepatic-intrinsic clearance (CLh, int) and the small intestinal-intrinsic clearance (CLg, int) were calculated (Table 7). Such peptides were sufficiently slowly metabolized by hydrolysis with peptidases or the like in mouse sera and microsomes, contrary to peptides composed of natural amino acids having low lipophilicity.

[2] = Metabolic stability in mouse hepatic microsome; type: in vitro ADME; details: for Hepatic Microsome CLh, int (Mouse) In the absence of NADPH / microsomal CLint at 1 uM: 0.5 mg protein/mL, 1 uM, 30 minutes; for Hepatic Microsome CLh, int (Mouse) In the absence of NADPH: without NADPH; for microsomal CLint at 1 uM: male, mouse, liver microsomes, pH 7.4, with NADPH, read-out: Hepatic Microsome CLh, int (Mouse) In the presence of NADPH
Procedure: as §1
Metabolic stability tests were carried out in the same manner as shown in 2-1.

[3] = Stability of aminoacylated pdCpA in buffers and on storage (LC-MS); type: physicochemical; details: for % by LC-MS during StBu deprotection: 250 μM Compound 2n-A, 50 mM Tris-HCl pH 7, 10 mM DTT
Procedure: The side chain StBu of pdCpA-Cys was deprotected using the precursor Compound 2n-A, and the following experiment was carried out to examine stability of the deprotected Compound 2e-A. The side chain was deprotected at room temperature under the conditions of 250 μM of Compound 2n-A, 50 mM Tris-HCl buffer, pH 7, and 10 mM DTT, and the time course of the deprotection was observed by LC-MS (SQD). The intended Compound 2e-A was not observed, and pdCpA resulting from hydrolysis of pdCpA-Cys was observed. After 5 minutes, Compound 2n-A was 51%, Compound 2e-A was 0%, and pdCpA was 49%. After 2 hours, deprotection was completed and Compound 2n-A was 0%, but Compound 2e-A was 0% and all hydrolized so that pdCpA was 100% (FIG. 13).
Stability of Compound 2n-A with the SH group of Cys protected was evaluated. Storage samples were prepared under five conditions as shown in the following Table 2 were prepared, respectively, and analyzed by LC-MS.
Stability of Compound 2n-B with the SH group of MeCys protected was also evaluated. Storage samples were prepared under four conditions as shown in the following Table 3 were prepared and analyzed by LC-MS.

[4] = pdCpA-MeCys(StBu): In AcONa buffer, 1 mM, pH 5, room temperature, 5 hours
[5] = pdCpA-MeCys(StBu): In DMSO, 5 mM, pH 4, 0° C., 1 day
[6] = pdCpA-MeCys(StBu): In HEPES buffer, 1 mM, pH 7, room temperature, 1 hour
[7] = pdCpA-MeCys(StBu): In Tris buffer, 1 mM, pH 7, room temperature, 1 hour

SMILES | half-life at 2 uM [1] | Hepatic Microsome CLh, int (Mouse) In the absence of NADPH [2] | microsomal CLint at 1 uM [2] | other results
CC[C@H](C)[C@H]1C(=O)N[C@@H](Cc2ccc(-c3ccccc3)cc2)C(=O)N[C@H](C(=O)N2CCCCC2)CSCC(=O)N(C)[C@@H](CC(C)C)C(=O)N[C@@H]([C@@H](C)O)C(=O)N(C)CC(=O)N(C)[C@@H](CC(C)C)C(=O)N[C@@H](CO)C(=O)N1C [Compound P-104, Ac*-MeLeu-Thr-MeGly-MeLeu-Ser-MeIle-Bip-Cys*-piperidine] ({CH2CO}-[NMeL]T[Sar][NMeL]S[NMeI][Bip]C-Piperidide; thioether N-8) | > 60 h | 6.9 ul/min/mg Protein | 106 µL/min/mg | –
CC(C)C[C@H]1C(=O)N[C@H](C(=O)N2CCCCC2)CSCC(=O)N(C)[C@@H](Cc2ccccc2)C(=O)N(C)[C@@H](C)C(=O)N[C@@H](Cc2ccccc2)C(=O)N(C)[C@@H](CC(C)C)C(=O)N[C@@H]([C@@H](C)O)C(=O)N(C)CC(=O)N1C [Compound P-105, Ac*-MePhe-MeAla-Phe-MeLeu-Thr-MeGly-MeLeu-Cys*-piperidine] ({CH2CO}-[NMeF][NMeA]F[NMeL]T[Sar][NMeL]C-Piperidide; thioether N-8) | > 60 h | 5.1 ul/min/mg Protein | 278 µL/min/mg | –
CC(C)C[C@H]1C(=O)N[C@@H](COC(C)(C)C)C(=O)N[C@H](C(=O)N2CCCCC2)CSCC(=O)N(C)[C@@H](C)C(=O)N[C@@H](Cc2ccccc2)C(=O)N(C)[C@@H](CC(C)C)C(=O)N[C@@H]([C@@H](C)O)C(=O)N(C)CC(=O)N1C [Compound P-106, Ac*-MeAla-Phe-MeLeu-Thr-MeGly-MeLeu-Ser(tBu)-Cys*-piperidine] ({CH2CO}-[NMeA]F[NMeL]T[Sar][NMeL]S(tBu)C-Piperidide; thioether N-8) | > 60 h | 1.9 ul/min/mg Protein | 151 µL/min/mg | –
CC[C@H](C)[C@H]1C(=O)N[C@H](C(=O)N2CCCCC2)CSCC(=O)N[C@@H](Cc2ccccc2)C(=O)N(C)[C@@H](CC(C)C)C(=O)N[C@@H]([C@@H](C)O)C(=O)N(C)CC(=O)N(C)[C@@H](CC(C)C)C(=O)N[C@@H](COC(C)(C)C)C(=O)N1C [Compound P-107, Ac*-Phe-MeLeu-Thr-MeGly-MeLeu-Ser(tBu)-MeIle-Cys*-piperidine] ({CH2CO}-F[NMeL]T[Sar][NMeL]S(tBu)[NMeI]C-Piperidide; thioether N-8) | > 60 h | 10.1 ul/min/mg Protein | 111 µL/min/mg | –
CC(C)C[C@H]1C(=O)N[C@@H](COC(C)(C)C)C(=O)N[C@H](C(=O)N2CCCCC2)CSCC(=O)N(C)[C@@H](Cc2ccccc2)C(=O)N(C)[C@@H](C)C(=O)N(C)[C@@H](Cc2ccccc2)C(=O)N(C)[C@@H](CC(C)C)C(=O)N[C@@H]([C@@H](C)O)C(=O)N(C)CC(=O)N1C [Compound P-108, Ac*-MePhe-MeAla-MePhe-MeLeu-Thr-MeGly-MeLeu-Ser(tBu)-Cys*-piperidine] ({CH2CO}-[NMeF][NMeA][NMeF][NMeL]T[Sar][NMeL]S(tBu)C-Piperidide; thioether N-9) | > 60 h | 5.2 ul/min/mg Protein | 72.3 µL/min/mg | –
CC(C)C[C@H]1C(=O)N[C@@H](COC(C)(C)C)C(=O)N[C@H](C(=O)N2CCCCC2)CSCC(=O)N(C)[C@@H](Cc2ccccc2)C(=O)N(C)[C@@H](C)C(=O)N[C@@H](Cc2ccccc2)C(=O)N(C)[C@@H](CC(C)C)C(=O)N[C@@H]([C@@H](C)O)C(=O)N(C)CC(=O)N1C [Compound P-110, Ac*-MePhe-MeAla-Phe-MeLeu-Thr-MeGly-MeLeu-Ser(tBu)-Cys*-piperidine] ({CH2CO}-[NMeF][NMeA]F[NMeL]T[Sar][NMeL]S(tBu)C-Piperidide; thioether N-9) | > 60 h | 6.1 ul/min/mg Protein | 163 µL/min/mg | –
CC[C@H](C)[C@H]1C(=O)N[C@H](C(=O)N2CCCCC2)CSCC(=O)N(C)[C@@H](C)C(=O)N[C@@H](Cc2ccccc2)C(=O)N(C)[C@@H](CC(C)C)C(=O)N[C@@H]([C@@H](C)O)C(=O)N(C)CC(=O)N(C)[C@@H](CC(C)C)C(=O)N[C@@H](COC(C)(C)C)C(=O)N1C [Compound P-111, Ac*-MeAla-Phe-MeLeu-Thr-MeGly-MeLeu-Ser(tBu)-MeIle-Cys*-piperidine] ({CH2CO}-[NMeA]F[NMeL]T[Sar][NMeL]S(tBu)[NMeI]C-Piperidide; thioether N-9) | > 60 h | 0 ul/min/mg Protein | 76.4 µL/min/mg | Mouse Hepatic Microsome CLh, int ([2]; Table 9, thioether versus sulfoxide): 76.4 ul/min/mg Protein
Nc1ccn([C@H]2C[C@H](OP(=O)(O)OC[C@H]3O[C@@H](n4cnc5c(N)ncnc54)[C@H](O)[C@@H]3O)[C@@H](COP(=O)(O)O)O2)c(=O)n1 [pdCpA, ((2R,3S,5R)-5-(4-amino-2-oxopyrimidin-1(2H)-yl)-3-(((((2R,3S,4R,5R)-5-(6-amino-9H-purin-9-yl)-3,4-dihydroxytetrahydrofuran-2-yl)methoxy)(hydroxy)phosphoryl)oxy)tetrahydrofuran-2-yl)methyl dihydrogenphosphate, reference compound] | – | – | – | % by LC-MS during StBu deprotection ([3]; room temperature, after 5 minutes): 49%; % by LC-MS during StBu deprotection ([3]; room temperature, after 2 hours): 100%; % remaining by LC-MS ([3]; In AcONa buffer, 1 mM, pH 5, room temperature, 1 hour): 30%; % remaining by LC-MS ([3]; In DMSO, 5 mM, pH 4, 0° C., 2.5 days): 42%; % remaining by LC-MS ([3]; In HEPES buffer, 1 mM, pH 7, room temperature, 1 hour): 70%; % remaining by LC-MS ([3]; Stored as solid, room temperature, 16 days): 36%; % remaining by LC-MS [3, 4]: 0%; % remaining by LC-MS [3, 5]: 0%; % remaining by LC-MS [3, 6]: 51%; % remaining by LC-MS [3, 7]: 65%
CN[C@@H](CSSC(C)(C)C)C(=O)O[C@H]1[C@@H](O)[C@H](n2cnc3c(N)ncnc32)O[C@@H]1COP(=O)(O)O[C@H]1C[C@H](n2ccc(N)nc2=O)O[C@@H]1COP(=O)(O)O [pdCpA-MeCys(StBu), (2R)-(2R,3S,4R,5R)-2-((((((2R,3S,5R)-5-(4-amino-2-oxopyrimidin-1(2H)-yl)-2-((phosphonooxy)methyl)tetrahydrofuran-3-yl)oxy)(hydroxy)phosphoryl)oxy)methyl)-5-(6-amino-9H-purin-9-yl)-4-hydroxytetrahydrofuran-3-yl 3-(tert-butyldisulfanyl)-2-(methylamino)propanoate] | – | – | – | % remaining by LC-MS [3, 4]: 100%; % remaining by LC-MS [3, 5]: 100%; % remaining by LC-MS [3, 6]: 49%; % remaining by LC-MS [3, 7]: 35%
